One assay has as its target Bcl-xL (Homo sapiens (Human), UniProt Q07817). The assay is described as follows: Bcl-xL/Bim Fluorescence Resonance Energy Transfer Assay (FRET). It is filed as binding. Here is the method:
Bcl-xL/Bim Fluorescence Resonance Energy Transfer Assay (FRET) The assays were performed in black flat-bottom 384-well plates. The final assay volume was 55 μl prepared from additions of Biotin-Bcl-xL (Bcl-xL: GENBANK® Accession No. […] The reaction was incubated at room temperature for 60 minutes. After 60 minutes, 5 μL of Streptavidin-Terbium FRET detection reagent (Perkin Elmer) was added to the reaction mixture and incubated at room temperature in the dark for 30 mins. […] Compounds were dissolved at 10 mM in dimethylsulfoxide (DMSO) and evaluated at eleven concentrations. IC50 values were derived by non-linear regression analysis.

The target of a further assay is Bcl-2 (Homo sapiens (Human), UniProt P10415). Briefly: Bcl-2/Bim Fluorescence Polarization Assay (FPA). The class given is binding. As for the experimental part:
Bcl-2/Bim Fluorescence Polarization Assay (FPA)
The assays were performed in black flat-bottom 384-well plates. […] The reaction was incubated at room temperature for 60 minutes and fluorescence polarization of the reaction was detected on the LJL Plate Reader. Inhibition data were calculated from mP values generated by the no protein control reactions for 100% inhibition and vehicle-only reactions for 0% inhibition. The final concentrations of reagents in the assay were 4.9 nM BCL-2, 5 nM fluoresceinated 18-mer BIM peptide and 1% DMSO. […] Compounds were dissolved at 10 mM in dimethylsulfoxide (DMSO) and evaluated at eleven concentrations. IC50 values were derived by non-linear regression analysis.

Sequence of Bcl-xL (Q07817 whole entry): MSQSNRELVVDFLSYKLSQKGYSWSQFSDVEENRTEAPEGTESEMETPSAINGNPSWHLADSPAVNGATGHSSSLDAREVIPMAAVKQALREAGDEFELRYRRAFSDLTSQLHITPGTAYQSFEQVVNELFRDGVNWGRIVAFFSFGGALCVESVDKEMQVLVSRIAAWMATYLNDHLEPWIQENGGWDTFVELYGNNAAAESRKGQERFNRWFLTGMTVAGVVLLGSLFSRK
Sequence of Bcl-2 (P10415 whole entry): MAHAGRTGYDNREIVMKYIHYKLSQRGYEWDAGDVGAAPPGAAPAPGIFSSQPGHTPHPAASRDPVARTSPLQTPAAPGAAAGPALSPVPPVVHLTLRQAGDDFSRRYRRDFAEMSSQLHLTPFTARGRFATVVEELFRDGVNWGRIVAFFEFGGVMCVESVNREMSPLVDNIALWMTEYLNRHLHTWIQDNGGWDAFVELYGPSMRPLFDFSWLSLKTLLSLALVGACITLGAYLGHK

As for `CCCCN(CCCC)C(=O)c1nn(-c2ccc(C(=O)NS(=O)(=O)c3cc(Br)c4c(c3)c(Br)cn4CC)cc2C(=O)N2CCc3ccccc3C2)c(C)c1Cl` [Example 85, N,N-dibutyl-4-chloro-1-(4-(3,7-dibromo-1-ethyl-1H-indol-5-ylsulfonylcarbamoyl)-2-(1,2,3,4-tetrahydroisoquinoline-2-carbonyl)phenyl)-5-methyl-1H-pyrazole-3-carboxamide], the IC50 was found to be 20 nM on Bcl-xL and 4.19 nM at Bcl-2.

As to `CCCCN(CCCC)C(=O)c1nn(-c2ccc(C(=O)NS(=O)(=O)c3ccc4cccc(Cl)c4c3)cc2C(=O)N2Cc3ccccc3C[C@H]2CN)c(C)c1Cl` [Example 203, 1-(2-((S)-3-(aminomethyl)-1,2,3,4-tetrahydroisoquinoline-2-carbonyl)-4-(8-chloronaphthalen-2-ylsulfonylcarbamoyl)phenyl)-N,N-dibutyl-4-chloro-5-methyl-1H-pyrazole-3-carboxamide], the IC50 against Bcl-xL and on Bcl-2 was 10 nM in each case.

On to `CCCCN(CCCC)C(=O)c1nn(-c2ccc(C(=O)NS(=O)(=O)c3ccc4c(Cl)ccc(Br)c4c3)cc2C(=O)N2CCc3ccccc3C2)c(C)c1Cl` [Example 43, 1-(4-(8-bromo-5-chloronaphthalen-2-ylsulfonylcarbamoyl)-2-(1,2,3,4-tetrahydroisoquinoline-2-carbonyl)phenyl)-N,N-dibutyl-4-chloro-5-methyl-1H-pyrazole-3-carboxamide], for which the figures for the IC50 against Bcl-xL and at Bcl-2 were 20 nM and 3.93 nM, respectively.

`CCCCc1c(-c2ccc(C(=O)NS(=O)(=O)CC[Si](C)(C)C)cc2C(=O)N2CCc3ccccc3C2)c(C(=O)OCC)nn1-c1ccccc1` [Example 239, Ethyl 5-butyl-1-phenyl-4-(2-(1,2,3,4-tetrahydroisoquinoline-2-carbonyl)-4-(2-(trimethylsilyl)ethylsulfonylcarbamoyl)phenyl)-1H-pyrazole-3-carboxylate]: the IC50 against Bcl-xL came to 30 nM; at Bcl-2 it was 580 nM.

Turning to `CCCCN(C(=O)c1nn(-c2ccc(C(=O)NS(=O)(=O)c3ccc4ccccc4c3)cc2C(=O)N2CCc3ccccc3C2)c(C)c1Cl)c1ccc(C(=O)OC)cc1` [Example 154, methyl 4-(N-butyl-4-chloro-5-methyl-1-(4-(naphthalen-2-ylsulfonylcarbamoyl)-2-(1,2,3,4-tetrahydroisoquinoline-2-carbonyl)phenyl)-1H-pyrazole-3-carboxamido)benzoate], the values for the IC50 on Bcl-xL and at Bcl-2 were 80 nM and 90 nM, respectively.

`CCCCN(CCCC)C(=O)c1cccc(-c2ccc(C(=O)NS(=O)(=O)c3ccc4ccccc4c3)cc2C(=O)N2CCc3ccccc3C2)n1` [Example 286, N,N-Dibutyl-6-(4-(naphthalen-2-ylsulfonylcarbamoyl)-2-(1,2,3,4-tetrahydroisoquinoline-2-carbonyl)phenyl)picolinamide]: the figures for the IC50 against Bcl-xL and at Bcl-2 were 70 nM and 600 nM, respectively.

Turning to `CCCCc1c(-c2ccc(C(=O)NS(=O)(=O)c3ccc4cccc(Cl)c4c3)cc2C(=O)N2CCc3ccccc3C2)c(CO)nn1-c1ccc(Oc2cccc(Cl)c2)cc1` [Example 252, 4-(5-butyl-1-(4-(3-chlorophenoxy)phenyl)-3-(hydroxymethyl)-1H-pyrazol-4-yl)-N-(8-chloronaphthalen-2-ylsulfonyl)-3-(1,2,3,4-tetrahydroisoquinoline-2-carbonyl)benzamide], the IC50 at Bcl-xL was determined as 10 nM; at Bcl-2, 6.37 nM.

For the compound `CCCCN(CCCC)C(=O)c1nn(-c2ccc(C(=O)NS(=O)(=O)c3ccc4ccccc4c3)cc2C(=O)N2Cc3ccccc3C[C@H]2COCCCOC)c(C)c1Cl` [Example 105, N,N-Dibutyl-4-chloro-1-(2-((S)-3-((3-methoxypropoxy)methyl)-1,2,3,4-tetrahydroisoquinoline-2-carbonyl)-4-(naphthalen-2-ylsulfonylcarbamoyl)phenyl)-5-methyl-1H-pyrazole-3-carboxamide], the IC50 on Bcl-xL was determined as 30 nM; against Bcl-2, 20 nM.

Consider `CCCCN(CCCC)C(=O)c1cn(C)c(-c2ccc(C(=O)NS(=O)(=O)c3ccc4cccc(I)c4c3)cc2C(=O)N2Cc3ccccc3C[C@H]2CN)n1` [Example 282, 2-(2-((S)-3-(Aminomethyl)-1,2,3,4-tetrahydroisoquinoline-2-carbonyl)-4-(8-iodonaphthalen-2-ylsulfonylcarbamoyl)phenyl)-N,N-dibutyl-1-methyl-1H-imidazole-4-carboxamide], for which the IC50 against Bcl-xL worked out at 10 nM; at Bcl-2, 6.97 nM.

Turning to `CCCCc1c(-c2ccc(C(=O)NS(=O)(=O)c3ccc4ccccc4c3)cc2C(=O)N2CCc3ccccc3C2)c(C(=O)OCC)nn1-c1ccc(Oc2cccc(Cl)c2)cc1` [Example 230, Ethyl 5-butyl-1-(4-(3-chlorophenoxy)phenyl)-4-(4-(naphthalen-2-ylsulfonylcarbamoyl)-2(1,2,3,4-tetrahydroisoquinoline-2-carbonyl)phenyl)-1H-pyrazole-3-carboxylate], the IC50 against Bcl-xL was found to be 60 nM; on Bcl-2, 20 nM.

As for `CCCN(CCC)c1ncc(Cl)c(-c2ccc(C(=O)NS(=O)(=O)c3ccc4cccc(Cl)c4c3)cc2C(=O)N2Cc3ccccc3C[C@H]2CO)n1` [Example 328, 4-(5-Chloro-2-(dipropylamino)pyrimidin-4-yl)-N-(8-chloronaphthalen-2-ylsulfonyl)-3-((S)-3-(hydroxymethyl)-1,2,3,4-tetrahydroisoquinoline-2-carbonyl)benzamide], the half-maximal inhibitory concentration (IC50) against Bcl-xL is 10 nM; at Bcl-2, 8.78 nM.

In the case of `CCCCN(C(=O)c1nn(-c2ccc(C(=O)NS(=O)(=O)c3ccc4c(Cl)ccc(Cl)c4c3)cc2C(=O)N2CCc3ccccc3C2)c(C)c1Cl)c1cccc(-c2cccc(Cl)c2)c1` [Example 222, N-butyl-4-chloro-N-(3′-chlorobiphenyl-3-yl)-1-(4-(5,8-dichloronaphthalen-2-ylsulfonylcarbamoyl)-2-(1,2,3,4-tetrahydroisoquinoline-2-carbonyl)phenyl)-5-methyl-1H-pyrazole-3-carboxamide], the IC50 against Bcl-xL is 40 nM; on Bcl-2, 70 nM.

Consider `CCCCN(CCCC)C(=O)c1nn(-c2ccc(C(=O)NS(=O)(=O)c3ccc4cccc(OCCCN5CCOCC5)c4c3)cc2C(=O)N2CCc3ccccc3C2)c(C)c1Cl` [Example 32, N,N-dibutyl-4-chloro-5-methyl-1-(4-(8-(3-morpholinopropoxy)naphthalen-2-ylsulfonylcarbamoyl)-2-(1,2,3,4-tetrahydroisoquinoline-2-carbonyl)phenyl)-1H-pyrazole-3-carboxamide], for which the IC50 against Bcl-xL worked out at 50 nM; on Bcl-2 it was 290 nM.

Turning to `CCCCN(CCCC)C(=O)c1nn(-c2ccc(C(=O)NS(=O)(=O)c3ccc4c(c3)CCN4CCSc3ccccc3)cc2C(=O)N2CCc3ccccc3C2)c(C)c1Cl` [Example 67, N,N-dibutyl-4-chloro-5-methyl-1-(4-(1-(2-(phenylthio)ethyl)indolin-5-ylsulfonylcarbamoyl)-2-(1,2,3,4-tetrahydroisoquinoline-2-carbonyl)phenyl)-1H-pyrazole-3-carboxamide], the values for the IC50 at Bcl-xL and against Bcl-2 were 60 nM and 50 nM, respectively.

In the case of `CCCCN(CCCC)C(=O)c1nn(-c2ccc(C(=O)NS(=O)(=O)c3ccc4ccccc4c3)cc2C(=O)N2Cc3ccccc3C[C@H]2CN)c(C)c1Cl` [Example 92, 1-(2-((S)-3-(Aminomethyl)-1,2,3,4-tetrahydroisoquinoline-2-carbonyl)-4-(naphthalen-2-ylsulfonylcarbamoyl)phenyl)-N,N-dibutyl-4-chloro-5-methyl-1H-pyrazole-3-carboxamide], the concentration for half-maximal inhibition (IC50) on Bcl-xL was determined as 10 nM; at Bcl-2 it was 8.41 nM.

As to `CCCCN(CCc1ccc(Cl)c(Cl)c1)C(=O)c1nn(-c2ccc(C(=O)NS(=O)(=O)c3ccc4ccccc4c3)cc2C(=O)N2CCc3ccccc3C2)c(C)c1Cl` [Example 127, N-butyl-4-chloro-N-(3,4-dichlorophenethyl)-5-methyl-1-(4-(naphthalen-2-ylsulfonylcarbamoyl)-2-(1,2,3,4-tetrahydroisoquinoline-2-carbonyl)phenyl)-1H-pyrazole-3-carboxamide], the IC50 against Bcl-xL was 220 nM; at Bcl-2, 30 nM.

With `CCCCN(CCCC)C(=O)c1nn(-c2ccc(C(=O)NS(=O)(=O)c3ccc4cccc(OCCN5CCOCC5)c4c3)cc2C(=O)N2CCc3ccccc3C2)c(C)c1Cl` [Example 27, N,N-dibutyl-4-chloro-5-methyl-1-(4-(8-(2-morpholinoethoxy)naphthalen-2-ylsulfonylcarbamoyl)-2-(1,2,3,4-tetrahydroisoquinoline-2-carbonyl)phenyl)-1H-pyrazole-3-carboxamide], the IC50 turned out to be 40 nM at Bcl-xL and 110 nM against Bcl-2.

As to `CCCN(CCC)c1nn(-c2ccc(C(=O)NS(=O)(=O)c3ccc4cccc(Cl)c4c3)cc2C(=O)N2CCc3ccccc3C2)c(C(F)(F)F)c1Cl` [Example 196, 4-(4-Chloro-3-(dipropylamino)-5-(trifluoromethyl)-1H-pyrazol-1-yl)-N-(8-chloronaphthalen-2-ylsulfonyl)-3-(1,2,3,4-tetrahydroisoquinoline-2-carbonyl)benzamide], the IC50 against Bcl-xL stood at 510 nM; at Bcl-2 it was 40 nM.
